This is an account of results in patent US4243679A, “S-(3-Methyl-2-butenyl)cysteine” (priority 1978, dated 1981).

Like-named read-outs stand apart in the source and are kept apart here.

Usually ED50 stands for the dose that gives a 50% effect, or the effect in half of the subjects. Broadly, the LD50 is the dose expected to kill half of the subjects tested. A lower LD50 goes with greater toxicity.

The subject of data set [1] is tracheobronchial secretion. Briefly: Secretogogue activity, Mawatari's technique (bronchial elimination of sodium fluoresceine), mouse. It is filed as in vivo. The protocol:
(§1) The capacity of increasing tracheobronchial secretion was determined by the technique of bronchial elimination of sodium fluoresceine (Mawatari, Kagoshima Daigak Igaku Zasshi, 27, 561 (1976)) on two animal species and by two different administration routes: oral and parenteral.
(§2) Secretogogue activity - Mawatari's technique
(§3) Three dose levels n = 15-40 = number of test animals
(§4) Male animals were used -

Data set [2] relates to tracheobronchial secretion. The data set can be described thus: Secretogogue activity, Mawatari's technique (bronchial elimination of sodium fluoresceine), rat. It counts as in vivo. On the procedure: as §1, §2, §3, §4
Data set [3] has as its system tracheobronchial secretion. The data set can be described thus: Secretogogial activity, bronchial elimination of sodium fluoresceine, two animal species (overall statement). It counts as in vivo, Mouse; Rat. Particulars: oral and parenteral. The protocol: as §1
The test system of another data set is mucus. Briefly: Expectorant activity, Perry-Boyd technique. It is filed as in vivo. The settings on record: rabbit; for % increase with regard to controls: fluid collected. An excerpt: Determination of the expectorant activity was achieved by the technique of collecting mucus of anaesthetized rabbits breathing in conditioned air at body humidity and temperature (Perry and Boyd, J. Pharmacol. Exp. Ther., 23 65(194l)), and measuring the percentage increase of fluid collected in relation to controls.
Expectorant activity. Perry-Boyd technique, in
rabbit. Oral route, n = 12 = number of test

The next data set relates to respiratory mucus. Briefly: Modification of respiratory mucus composition, Giraldez-Gras method. It counts as in vivo, rabbit. The protocol: By means of an original technique (Giraldez and Gras), XXVI Congr. IUPS, Abstr. 777, Paris 1977)) which allows the collection of abundant samples of mucus on conscious animals and on consecutive days, the amount of eliminated mucus, its biochemical composition and its physico-chemical constants were studied. In addition to the two standards used before, N-acetylcysteine was also administered by topic route. |Modification of mucus composition. Giraldez-Gras Method, in rabbit |Oral route n = 12-30 = number of test animals

The conditions of data set [4]: oral; cited from earlier work.
The subject of a further data set is ciliary epithelium. Briefly: Effect on the ciliary movement: mucus transport time in isolated dog trachea. An excerpt: This vehicle was also used as the blank.
Mucus transport time, in isolated dog trachea

A short description of the next data set: Acute toxicity, rat. Particulars: in vivo. An excerpt:
(§5) The weight of the animals was of 180±20 g for rats and >25 g for mice.

A short description of the next data set: Acute toxicity, mouse. Particulars: in vivo.
Text: as §5

Data set [5] in a line: Acute toxicity, two species (overall statement). It counts as in vivo, Rat; Mouse. Particulars: oral and intraperitoneal.
Text: as §5

Data set [6] in a line: Subacute toxicity in rat (one month). It counts as in vivo. The settings on record: 100, 300 and 1000 mg/kg/day. On the procedure:
In order to study the toxicity of ITA 275 in the rat, this compound was given at doses of 100, 300 and 1000 mg/kg/day during one month, to 100 rats (.male./.female.=50/50)

Data set [7] is described as follows: Subchronic toxicity in rat (six months). It is filed as in vivo. Particulars: 100, 300 and 1000 mg/kg/day. The text has this: ITA 275 was given during six months to rats at the same doses as in the preceding test. The number of animals used was of 100 (.male./.female.=50/50).
Where [8] appears, read: rabbit, oral, 500 mg/kg, ***p < 0,005.
The mark [9] stands for this setting: ip, confidence limits on next printed line.
Where [10] appears, read: ip, confidence limits printed on next line.
[11] abbreviates: rabbit, 0,1 ml/kg sol. 20% (topic).

As to `CN(Cc1cc(Br)cc(Br)c1N)C1CCCCC1` [Bisolvon, Bromhexine], the “Max. efficiency % secretion increase” value in data set [1] (i.p.) is 26,0%. For the same compound, in data set [1] (ip, read-out: ED25), the ED25 came out at 32 mg/kg. Besides, in data set [1] (p.o.), the ED25 result was “no corre-” and the “Max. efficiency % secretion increase” value is 34,7%. Also, in data set [2] (p.o.), the ED50 result is given as “no corre-” and the “Max. efficiency % secretion increase” value is recorded as 14,8%. The “Secretogogial activity (in words)” value in data set [3] is “below statistical significance and did not follow a constant dose-effect sequence”. The “% increase with regard to controls” value with mucus (20 mg/kg p.o.) is given as 20,6%. For the same compound, the “% increase with regard to controls” value in the data set with mucus (40 mg/kg p.o.) is 38,1%. For the same compound, in the data set with respiratory mucus (rabbit, oral, 40 mg/kg), the “% Increase Muco-proteins” value is listed as 4,9 ± 8,9%, the “% Increase SH Groups” value is given as 0,3 ± 13,4%, the “% Increase mucus weight” value is -6,1 ± 8,3% and the “% Increase total proteins” value is reported as 3,1 ± 14,4%. For the same compound, in [4], the “absorption when orally administered (in words)” value is given as “well adsorbed when orally administered” and the “side effects (in words)” value is given as “practically no side effects”.

`CC(C)=CCSC[C@H](N)C(=O)O` [ITA 275, S-(3-methyl-2-butenyl)-cysteine]: the “Max. efficiency % secretion increase” value in [1] (i.p.) is given as 42,7%. Besides, in data set [1] (ip, read-out: ED25), the ED25 came to 218 mg/kg. Moreover, in data set [1] (p.o.), the “Max. efficiency % secretion increase” value is on record as 20,7%. Also, the ED25 in data set [1] (po, read-out: ED25) was 611 mg/kg. Further, in [2] (p.o.), the “Max. efficiency % secretion increase” value is 57,0%. The ED50 in data set [2] (po, read-out: ED50) worked out at 447 mg/kg. For the same compound, in data set [3], the “Secretogogial activity (in words)” value is “showed activity”. In addition, the “% increase with regard to controls” value in the data set on mucus (500 mg/kg p.o.) is given as 135,6%. Moreover, the “Expectorant activity compared with S-carboxymethylcysteine (in words)” value in the data set on mucus (oral route) was “somewhat more active than S-carboxymethylcysteine”. In the data set on respiratory mucus (rabbit), the “content of total proteins (in words)” value was “increase in the content of total proteins”, the “mucolytic property demonstrated by the release of -SH groups (in words)” value is on record as “does not present the mucolytic property of N-acetylcysteine” and the “mucus elimination (in words)” value was “great increase in mucus elimination”. Further, in the data set with respiratory mucus (rabbit, oral, 500 mg/kg), the “% Increase SH Groups” value is on record as 29,2 ± 14,4% and the “% Increase mucus weight” value was 466,1 ± 343,5%. Also, the “% Increase Muco-proteins” value in the data set on respiratory mucus (setting [8]) is given as 32,7 ± 14,3%. Also, the “% increase of ciliary transport time” value in the data set with ciliary epithelium (10 mM, 0 min, p<0,001) is listed as 162,3 ± 13,4%. Also, the “% increase of ciliary transport time” value in the data set on ciliary epithelium (10 mM, 10 min, p<0,01) was 107,3 ± 21,8%. In addition, the “% increase of ciliary transport time” value with ciliary epithelium (10 mM, 20 min) was 16,2 ± 7,6%. The “duration of the increase in transport time” value with ciliary epithelium (isolated dog trachea) is “at least 20 min”. The 50% lethal dose (LD50) in “Acute toxicity, rat” (setting [9]) was 3100 mg/kg. The compound further returned a median lethal dose (LD50) in “Acute toxicity, rat” (po) greater than 4000 mg/kg. The compound further showed an LD50 in the data set “Acute toxicity, mouse” (setting [10]) of 2090 mg/kg. In the data set “Acute toxicity, mouse” (po), this compound showed an LD50 greater than 4000 mg/kg. Further, in data set [5], the “acute toxicity (in words)” value is “very low acute toxicity both by oral and intraperitoneal routes”; the “acute toxicity compared with S-carboxymethylcysteine (in words)” value was “even smaller than that of S-carboxymethylcysteine”. In data set [6], the general behaviour entry is “No abnormalities”; the hematological values result is on record as “remained normal”; the liver weight result is on record as “slight increase in liver weight”; the “weight increase, food and water intake” value was “did not modify either the weight increase or the food and water intake”. In addition, the “weight of all other organs” value in [6] was “did not undergo weight changes”. Further, in [7], the tolerability entry is reported as “well tolerated”.

Turning to `CC(=O)N[C@@H](CS)C(=O)O` [N-acetylcysteine], in the data set on respiratory mucus (setting [11]), the “% Increase mucus weight” value is listed as 150,9 ± 30,8% and the “% Increase total proteins” value is recorded as 491,4 ± 311,1%. In addition, in the data set with respiratory mucus (rabbit, 0,1 ml/kg sol. 20% (topic), **p < 0,01), the “% Increase Muco-proteins” value is 2450,3 ± 480,5%. For the same compound, the “% Increase SH Groups” value with respiratory mucus (rabbit, 0,1 ml/kg sol. 20% (topic), *p < 0,1) is 305,5 ± 102,9%.

In the case of `N[C@@H](CSCC(=O)O)C(=O)O` [S-Carboxymethylcysteine, S-carboxymethylcysteine], the “Max. efficiency % secretion increase” value was 22,3% in data set [1] (i.p.), 6,3% in data set [1] (p.o.) and 39,3% in data set [2] (p.o.). Moreover, the ED25 in data set [1] (ip, read-out: ED25) was 764 mg/kg; in [1] (p.o.), “no corre-”. In [2] (po, read-out: ED50), the ED50 is 1070 mg/kg. For the same compound, in [3], the “Secretogogial activity (in words)” value is “below statistical significance and did not follow a constant dose-effect sequence”. Moreover, the “% increase with regard to controls” value with mucus (500 mg/kg p.o.) is listed as 110,9%. Besides, in the data set on respiratory mucus (rabbit, oral, 500 mg/kg), the “% Increase SH Groups” value was 11,6 ± 34,2%. In addition, the “% Increase mucus weight” value in the data set with respiratory mucus (rabbit, oral, 500 mg/kg) is given as 16,4 ± 44,9%. Moreover, in the data set on respiratory mucus (rabbit, oral, 500 mg/kg), the “% Increase total proteins” value is 31,7 ± 27,4%. The “% Increase Muco-proteins” value in the data set with respiratory mucus (setting [8]) is recorded as 131,9 ± 91,8%. Moreover, the LD50 was 2480 mg/kg in “Acute toxicity, rat” (setting [9]); greater than 4000 mg/kg in the data set “Acute toxicity, rat” (po); 1780 mg/kg in the data set “Acute toxicity, mouse” (setting [10]); greater than 4000 mg/kg in the data set “Acute toxicity, mouse” (po).

With `COc1cc2c3cc1Oc1cc(ccc1O)C[C@@H]1c4c(cc(OC)c(O)c4Oc4ccc(cc4)C[C@@H]3N(C)CC2)CC[N+]1(C)C` [d-turbocurarine], the “% increase of ciliary transport time” value in the data set on ciliary epithelium (10^-4 g/ml, 0 min) is 69,8 ± 12,3%; in the data set on ciliary epithelium (10^-4 g/ml, 10 min) it was 32,3 ± 14,5%.
